{"source": "patent US6537967B1", "about": "“Pentamer peptide amide, ALGPGNH2, which inhibits viral infectivity and methods of use thereof” (Tripep AB, priority 2001, dated 2003)", "assay_type_in_all_cases": "cell-based", "key": {"[1]": {"system": "HIV-1 clinical isolate 1", "assay": "HIV-1 clinical isolate 1 infectivity assay in PBMC (p24 in culture supernatant)", "settings": "FIG. 2", "procedure": "(§1) In this example, the methods that were used to analyze the ability of ALGPG-NH2 (SEQ. ID. NO.: 1) to inhibit HIV- l replication are disclosed. HIV-1 SF-2 stock was prepared from HUT78 cells and two clinical isolates were prepared from donor's peripheral blood mononuclear cells (PBMC). The virus infected cells were propagated and maintained in RPMI 1640 medium supplemented with 10% heat inactivated fetal bovine serum (GIBCO Laboratories) with penicillin and streptomycin (100 μg/ml each). PBMCs were purified by Ficoll-Hypaque density gradient centrifugation and stimulated with phytohemagglutinin (KEBO laboratories, Sweden) for three days in RPMI 1640 medium supplemented with 10% heat inactivated fetal bovine serum (GIBCO Laboratories) with penicillin and streptomycin (100 μg/ml each).\n(§2) The infectivity assays of the HIV-1 clinical isolates were performed, as above, in PBMC, which were stimulated for three days with 2.5 μg/ml of phytohemagglutinin (DIFCO, New Jersey). Cells were cultured in RPMI 1640 medium supplemented with 10% (v/v) heat-inactivated fetal bovine serum (FBS), penicillin (100 u/ml), and streptomycin (100 u/ml), all available through GIBCO, and Polybrene (2 μg/ml), available through Sigma. […] The production of p24 in the culture supernatent was monitored using a commercially available HIV p24 antigen detection kit (ELISA kit from Abbott Laboratories, North Chicago, U.S.A.)."}, "[2]": {"system": "HIV-1 SF-2", "assay": "HIV-1 SF-2 infectivity assay in H9 cells (RT activity and p24 in culture supernatant)", "settings": "25 TCID50, FIG. 1", "procedure": "as §1\nApproximately 10^5 of H9 cells were infected with HIV-1 SF-2, obtained as described above, at 25 TCID50 to test the inhibitory effect of ALGPG-NH2 (SEQ. ID. NO.: 1). The H9 cells were resuspended with or without ALGPG-NH2 (SEQ. ID. NO.: 1) (at approximately 5 μM, 20 μM, and […]) in 1 ml of RPMI 1640 medium supplemented with 10% (v/v) heat-inactivated fetal bovine serum (FBS), penicillin (100 μ/ml), and streptomycin (100 u/ml), all available through GIBCO, and Polybrene (2 μg/ml), available through Sigma. Thereafter, viruses were added at 25 TCID50 in a volume of 20-30 μl. Cells were incubated with virus at 37° C. for 1 hr then pelleted at 170×g for 7 minutes. The cells were then washed three times in RPMI medium with or without peptides at room temperature and pelleted at 170×g for 7 minutes, as above. […]\nCulture supernatants were collected and analyzed when the medium was changed at 4, 7, 10, and 14 days post infection. […] The amount of RT was determined with the aid of a regression line of standards. The presence of p24 in the supernatants was determined using a commercially available HIV p24 antigen detection kit (ELISA kit from Abbott Laboratories, North Chicago, U.S.A.)."}, "[3]": {"system": "HIV-1 clinical isolate 2", "assay": "HIV-1 clinical isolate 2 infectivity assay in PBMC (p24 in culture supernatant)", "settings": "FIG. 2", "procedure": "as §1, §2"}}, "note": "Peptide text beside a SMILES is read from it.", "data": [{"compound": "CC(C)C[C@H](NC(=O)[C@H](C)N)C(=O)NCC(=O)N1CCC[C@H]1C(=O)NCC(N)=O", "note": "[ALGPG-NH2] (H-ALGPG-NH2; N-terminus assumed)", "values": [{"measurement": "inhibition of isolate 1", "setting": "[1]; 20 μM", "value": "approximately 20%"}, {"measurement": "inhibition of isolate 1", "setting": "[1]; 100 μM", "value": "almost complete"}, {"measurement": "inhibition of HIV-1 SF-2 infection", "setting": "[2]; 5 μM peptide amide", "value": "approximately 50%"}, {"measurement": "inhibition of HIV-1 SF-2 infection", "setting": "[2]; 20 μM peptide amide", "value": "almost complete"}, {"measurement": "inhibition of HIV-1 SF-2 infection", "setting": "[2]; 100 μM peptide amide", "value": "almost complete"}, {"measurement": "inhibition of isolate 2", "setting": "[3]; 20 μM", "value": "approximately 50%"}, {"measurement": "inhibition of isolate 2", "setting": "[3]; 100 μM", "value": "almost complete"}]}]}
